Assay results: patent US9150543B2, “Substituted indolyl alkyl amino derivatives as inhibitors of histone deacetylase” (Janssen Pharmaceutica N. V., priority 2004, dated 2015)
Converted amounts (≈) assume the structure as drawn.

Legend:
[1] = biological target: histone deacetylase (HeLa nuclear extracts); assay: In vitro assay for inhibition of histone deacetylase with fluorescent-labelled substrate (C.1.b); assay type: biochemical; details: Fluor de Lys substrate
Procedure: The HDAC Fluorescent Activity Assay/Drug Discovery Kit of Biomol (cat.No: AK-500-0001) was used. The HDAC Fluorescent Activity Assay is based on the Fluor de Lys (Fluorogenic Histone deAcetylase Lysyl) substrate and developer combination. The Fluor de Lys substrate, comprises an acetylated lysine side chain. Deacetylation of the substrate sensitizes the substrate so that, in the second step, treatment with the Fluor de Lys developer produces a fluorophore.
After 30 min, 1 volume of the developer was added. […] For each experiment, controls (containing HeLa nuclear extract and buffer), a blank incubation (containing buffer but no HeLa nuclear extract) and samples (containing compound dissolved in DMSO and further diluted in buffer and HeLa nuclear extract) were run in parallel. In first instance, compounds were tested at a concentration of 10^−5M. […] All sample were tested 4 times. In each test the blank value was subtracted from both the control and the sample values. The control sample represented 100% of substrate deactylation. For each sample the fluorescence was expressed as a percentage of the mean value of the controls. […] Herein the effects of test compounds are expressed as pIC50 (the negative log value of the IC50-value) (see Table F-3).

[2] = Solubility/stability at different pH's, chemiluminescent nitrogen detector (C.3.b); assay type: physicochemical; details: aqueous buffer; pH = 2.3
Excerpt: In a second method the solubility of a compound at different pH's can be measured with the use of a Chemiluminescent Nitrogen Detector (see example C.3.b).
The solubility of a compound, at different pH's, can also be measured with the use of a chemiluminescent nitrogen detector. (see Table F-3).

[3] = test system: A2780 ovarian carcinoma cells; assay: Antiproliferative activity on A2780 cells, MTT (C.2); assay type: cell-based; details: Homo sapiens, 96 h, four days of incubation, read-out: Cellular activity pIC50 C.2 (converted)
Procedure: All compounds tested were dissolved in DMSO and further dilutions were made in culture medium. Final DMSO concentrations never exceeded 0.1% (v/v) in cell proliferation assays. Controls contained A2780 cells and DMSO without compound and blanks contained DMSO but no cells. MTT was dissolved at 5 mg/ml in PBS. A glycine buffer comprised of 0.1 M glycine and 0.1 M NaCl buffered to pH 10.5 with NaOH (1N) was prepared (all reagents were from Merck).
The human A2780 ovarian carcinoma cells (a kind gift from Dr. T. C. Hamilton [Fox Chase Cancer Centre, Pennsylvania, USA]) were cultured in RPMI 1640 medium supplemented with 2 mM L-glutamine, 50 μg/ml gentamicin and 10% fetal calf serum. Cells were routinely kept as monolayer cultures at 37° C. in a humidified 5% CO2 atmosphere. Cells were passaged once a week using a trypsin/EDTA solution at a split ratio of 1:40. All media and supplements were obtained from Life Technologies. Cells were free of mycoplasma contamination as determined using the Gen-Probe Mycoplasma Tissue Culture kit (supplier: BioMerieux).
Cells were seeded in NUNC™ 96-well culture plates (Supplier: Life Technologies) and allowed to adhere to the plastic overnight. Densities used for plating were 1500 cells per well in a total volume of 200 μl medium. After cell adhesion to the plates, medium was changed and drugs and/or solvents were added to a final volume of 200 μl. Following four days of incubation, medium was replaced by 200 μl fresh medium and cell density and viability was assessed using an MTT-based assay. To each well, 25 μl MTT solution was added and the cells were further incubated for 2 hours at 37° C. The medium was then carefully aspirated and the blue MTT-formazan product was solubilized by addition of 25 μl glycine buffer followed by 100 μl of DMSO. […] Within an experiment, the results for each experimental condition are the mean of 3 replicate wells. For initial screening purposes, compounds were tested at a single fixed concentration of 10^−6 M. For active compounds, the experiments were repeated to establish full concentration-response curves. For each experiment, controls (containing no drug) and a blank incubation (containing no cells or drugs) were run in parallel. The blank value was subtracted from all control and sample values. For each sample, the mean value for cell growth (in absorbance units) was expressed as a percentage of the mean value for cell growth of the control. […] Herein the effects of test compounds are expressed as pIC50 (the negative log value of the IC50-value)(see Table F-3).

Enzymatic activity pIC50 C.1.b [1] | solubility [2] [µg/mL] | IC50 [3] [nM] | melting point [°C] | SMILES
8.3 | 1900 (≈ 4.65 mM) | 31.6 |  | CN(Cc1cn(C)c2ccccc12)CC1CCN(c2ncc(C(=O)NO)cn2)CC1 [Compound 67]
9.1 |  | 63.1 | 183 | Cn1cc(CCN(CC2CCN(c3ncc(C(=O)NO)cn3)CC2)S(C)(=O)=O)c2cc(Cl)ccc21 [Compound 22]
8.4 |  | 31.6 | 182 | CCn1c(C)c(CCNC2CCN(c3ncc(C(=O)NO)cn3)CC2)c2ccccc21 [Compound 23]
8.6 | 2400 (≈ 6.08 mM) | 25.1 |  | Cn1ccc2ccc(CNCC3CCN(c4ncc(C(=O)NO)cn4)CC3)cc21 [Compound 50]
>9.0 | 1600 (≈ 3.4 mM) | 31.6 |  | CCN(CCc1cn(C)c2ccc(Cl)cc12)CC1CCN(c2ncc(C(=O)NO)cn2)CC1 [Compound 65]
8.7 | 2500 (≈ 6.12 mM) | 2.51 |  | Cc1ccc2c(c1)c(CNCC1CCN(c3ncc(C(=O)NO)cn3)CC1)cn2C [Compound 36]
8.0 | 1500 (≈ 3.5 mM) | 3.98 |  | Cn1cc(CNCC2CCN(c3ncc(C(=O)NO)cn3)CC2)c2cc(Cl)ccc21 [Compound 32]
10.2 | 2800 (≈ 7.1 mM) | 25.1 |  | Cn1ccc2cccc(CNCC3CCN(c4ncc(C(=O)NO)cn4)CC3)c21 [Compound 57]
8.4 | 1700 (≈ 4.31 mM) | 39.8 |  | Cc1cccc2c(CNCC3CCN(c4ncc(C(=O)NO)cn4)CC3)c[nH]c12 [Compound 14]
8.7 | 3100 (≈ 6.82 mM) | 126 |  | COc1cc2c(CNCC3CCN(c4ncc(C(=O)NO)cn4)CC3)cn(C)c2cc1OC [Compound 60]
7.6 |  | 100 | 80 | CCCn1cc(CCN(CC)CC2CCN(c3ncc(C(=O)NO)cn3)CC2)c2ccc(OC)cc21 [Compound 25]
8.4 | 2700 (≈ 6.61 mM) | 7.94 |  | Cc1ccc2c(CNCC3CCN(c4ncc(C(=O)NO)cn4)CC3)cn(C)c2c1 [Compound 79]
8.7 | 3300 (≈ 8.37 mM) | 31.6 |  | Cn1ccc2c(CNCC3CCN(c4ncc(C(=O)NO)cn4)CC3)cccc21 [Compound 49]
10.1 | 2000 (≈ 4.77 mM) | 15.8 |  | Cn1cc(CNCC2CCN(c3ncc(C(=O)NO)cn3)CC2)c2cc(C#N)ccc21 [Compound 55]
8.0 |  | 79.4 | 174 | Cn1cc(CCNCC2CCN(c3ncc(C(=O)NO)cn3)CC2)c2ccccc21 [Compound 19]
>9.0 | 2500 (≈ 5.92 mM) | 63.1 |  | CCN(Cc1cn(C)c2ccccc12)CC1CCN(c2ncc(C(=O)NO)cn2)CC1 [Compound 68]
10.0 | 1600 (≈ 3.77 mM) | 31.6 |  | COc1ccc2c(c1)c(CNCC1CCN(c3ncc(C(=O)NO)cn3)CC1)cn2C [Compound 33]
8.8 | 4000 (≈ 9.12 mM) | 10 |  | COCCn1cc(CNCC2CCN(c3ncc(C(=O)NO)cn3)CC2)c2ccccc21 [Compound 47]
8.1 | 3700 (≈ 9.7 mM) | 31.6 |  | O=C(NO)c1cnc(N2CCC(CNCc3cc4ccccc4o3)CC2)nc1 [Compound 10]
9.0 | 1700 (≈ 3.64 mM) | 200 |  | CCCn1cc(CNCC2CCN(c3ncc(C(=O)NO)cn3)CC2)c2cc3c(cc21)OCO3 [Compound 45]

Enzymatic activity pIC50 C.1.b [1] | solubility [2] [µg/mL] | IC50 [3] [nM] | melting point [°C] | SMILES
8.2 | 2800 (≈ 7.1 mM) | 31.6 |  | Cn1c(CNCC2CCN(c3ncc(C(=O)NO)cn3)CC2)cc2ccccc21 [Compound 11]
9.5 |  | 10 |  | CCCn1cc(CNCC2CCN(c3ncc(C(=O)NO)cn3)CC2)c2ccccc21 [Compound 62]
10.3 |  | 7.94 |  | CCCn1cc(CNCC2CCN(c3ncc(C(=O)NO)cn3)CC2)c2cc(F)ccc21 [Compound 52]
8.2 | 1800 (≈ 4.56 mM) | 39.8 |  | Cn1ccc2cc(CNCC3CCN(c4ncc(C(=O)NO)cn4)CC3)ccc21 [Compound 44]
9.0 | 2000 (≈ 4.85 mM) | 31.6 |  | Cn1cc(CNCC2CCN(c3ncc(C(=O)NO)cn3)CC2)c2c(F)cccc21 [Compound 39]
8.3 |  | 31.6 |  | Cc1ccc2c(c1)c(CNCC1CCN(c3ncc(C(=O)NO)cn3)CC1)c(C)n2C [Compound 42]
9.0 | 2100 (≈ 5.09 mM) | 31.6 |  | Cn1cc(CNCC2CCN(c3ncc(C(=O)NO)cn3)CC2)c2cccc(F)c21 [Compound 30]
10.0 |  | 1580 |  | Cn1cc(CNCC2CCN(c3ncc(C(=O)NO)cn3)CC2)c2c(Cl)cccc21 [Compound 58]
8.9 |  | 31.6 |  | Cn1cc(CNCC2CCN(c3ncc(C(=O)NO)cn3)CC2)c2ccc(F)cc21 [Compound 81]
10.0 |  | 10 |  | CC(C)n1cc(CNCC2CCN(c3ncc(C(=O)NO)cn3)CC2)c2ccccc21 [Compound 53]
9.0 |  | 10 |  | O=C(NO)c1cnc(N2CCC(CNCc3cn(C4CCCC4)c4ccccc34)CC2)nc1 [Compound 46]
7.8 |  | 79.4 |  | Cn1cc(CNCC2CCN(c3ccc(C(=O)NO)cn3)CC2)c2ccccc21 [Compound 80]
8.2 |  | 79.4 |  | Cc1ccc2[nH]cc(CNCC3CCN(c4ncc(C(=O)NO)cn4)CC3)c2c1 [Compound 12]
8.3 | 2400 (≈ 6.31 mM) | 79.4 |  | O=C(NO)c1cnc(N2CCC(CNCc3c[nH]c4ccccc34)CC2)nc1 [Compound 8]
7.9 |  | 79.4 |  | CCN(CCc1cn(C)c2cc(OC)ccc12)CC1CCN(c2ncc(C(=O)NO)cn2)CC1 [Compound 73]
8.5 |  | 31.6 |  | O=C(NO)c1cnc(N2CCC(CNCc3c[nH]c4ccc(Br)cc34)CC2)nc1 [Compound 15]
>9.0 |  | 31.6 |  | Cc1cccc2c1c(CNCC1CCN(c3ncc(C(=O)NO)cn3)CC1)cn2C [Compound 38]
8.6 |  | 79.4 |  | COc1ccc2[nH]cc(CNCC3CCN(c4ncc(C(=O)NO)cn4)CC3)c2c1 [Compound 16]
6.0 |  | 31.6 |  | O=C(NO)c1cnc(N2CCC(CNCc3c[nH]c4ccc(F)cc34)CC2)nc1 [Compound 13]
8.5 | 2100 (≈ 4.81 mM) | 15.8 |  | CCCCn1cc(CNCC2CCN(c3ncc(C(=O)NO)cn3)CC2)c2ccccc21 [Compound 43]

SMILES | Enzymatic activity pIC50 C.1.b [1] | solubility [2] [µg/mL] | IC50 [3] [nM] | melting point [°C]
Cn1cc(CNCC2CCN(c3ncc(C(=O)NO)cn3)CC2)c2ccccc21 [Compound 1a] |  | 1400 (≈ 3.55 mM) | 6.31 | 
CCN(CCc1cn(C)c2ccccc12)CC1CCN(c2ncc(C(=O)NO)cn2)CC1 [Compound 66] | >9.0 | 1700 (≈ 3.89 mM) | 39.8 | 
